Laboratory results: PubChem BioAssay AID2060904 (Molecular Pharmacology Branch, DTP, NCI, 2025)

System: 349418-098-R-PDC complex spheroid viability
Experiment: Anticancer human tumor 349418-098-R-PDC patient-derived lung adenocarcinoma cell line growth inhibition [RAS]
Settings: for IC50: curve of first compound; for viability, T/C: stronger effect = lower value
Summary of the method: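 Multi-cell-type spheroids: tumor cells plus HUVEC endothelial cells and mesenchymal stem cells. RAS-pathway inhibitors were combined with targeted agents, each dosed in half-log steps down from clinical Cmax, or from 10 microM when Cmax was unknown.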
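Note: spheroids exposed to compound for seven days before viability readout.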

For `CC1(O)CCCC1n1c(=O)c(C(F)F)cc2cnc(NC3CCN(S(C)(=O)=O)CC3)nc21` (configuration not stated) + CCn1c(-c2cccnc2C(C)OC)c2c3cc(ccc31)N1CCOC(CC(NC(=O)C(C(C)C)N(C)C(=O)C3(F)CCN(C(=O)C#CC(C)(C)N(C)C)CC3)C(=O)N3CCCC(N3)C(=O)OCC(C)(C)C2)C1, the IC50 (second compound 0.000949 µM) was 54.1 nM, the IC50 (second compound 0.003 µM) was 54.9 nM and the IC50 (second compound 0.00949 µM) was 76.3 nM. For the same compound, the IC50 (second compound 0.03 µM) was 71 nM, the IC50 (second compound 0.0949 µM) was 64.2 nM and the IC50 (second compound 0.3 µM) was 31.6 nM. The viability, T/C (second compound 0.000949 µM, first compound 0.0316 µM) was 60.9%, the viability, T/C (second compound 0.000949 µM, first compound 0.1 µM) was 35.5% and the viability, T/C (second compound 0.000949 µM, first compound 0.316 µM) was 27.6%. It also gave a viability, T/C (second compound 0.000949 µM, first compound 1 µM) of 21.5%, a viability, T/C (second compound 0.000949 µM, first compound 3.16 µM) of 18.8% and a viability, T/C (second compound 0.000949 µM, first compound 10 µM) of 2.67%. The viability, T/C (second compound 0.003 µM, first compound 0.0316 µM) was 60.3%, the viability, T/C (second compound 0.003 µM, first compound 0.1 µM) was 38.4% and the viability, T/C (second compound 0.003 µM, first compound 0.316 µM) was 24.2%. It also gave a viability, T/C (second compound 0.003 µM, first compound 1 µM) of 20.4%, a viability, T/C (second compound 0.003 µM, first compound 3.16 µM) of 17.7% and a viability, T/C (second compound 0.003 µM, first compound 10 µM) of 2.71%. For the same compound, the viability, T/C (second compound 0.00949 µM, first compound 0.0316 µM) was 67.8%, the viability, T/C (second compound 0.00949 µM, first compound 0.1 µM) was 45.8% and the viability, T/C (second compound 0.00949 µM, first compound 0.316 µM) was 23.9%. For the same compound, the viability, T/C (second compound 0.00949 µM, first compound 1 µM) was 20.4%, the viability, T/C (second compound 0.00949 µM, first compound 3.16 µM) was 15.9% and the viability, T/C (second compound 0.00949 µM, first compound 10 µM) was 3.42%. The viability, T/C (second compound 0.03 µM, first compound 0.0316 µM) was 70.3%, the viability, T/C (second compound 0.03 µM, first compound 0.1 µM) was 39.7% and the viability, T/C (second compound 0.03 µM, first compound 0.316 µM) was 24.8%. It also gave a viability, T/C (second compound 0.03 µM, first compound 1 µM) of 19.2%, a viability, T/C (second compound 0.03 µM, first compound 3.16 µM) of 20% and a viability, T/C (second compound 0.03 µM, first compound 10 µM) of 2.63%. The viability, T/C (second compound 0.0949 µM, first compound 0.0316 µM) was 74%, the viability, T/C (second compound 0.0949 µM, first compound 0.1 µM) was 31.6% and the viability, T/C (second compound 0.0949 µM, first compound 0.316 µM) was 22.3%. For the same compound, the viability, T/C (second compound 0.0949 µM, first compound 1 µM) was 19.5%, the viability, T/C (second compound 0.0949 µM, first compound 3.16 µM) was 16.4% and the viability, T/C (second compound 0.0949 µM, first compound 10 µM) was 2.35%. For the same compound, the viability, T/C (second compound 0.3 µM, first compound 0.0316 µM) was 52.5%, the viability, T/C (second compound 0.3 µM, first compound 0.1 µM) was 31.6% and the viability, T/C (second compound 0.3 µM, first compound 0.316 µM) was 22.4%. For the same compound, the viability, T/C (second compound 0.3 µM, first compound 1 µM) was 19%, the viability, T/C (second compound 0.3 µM, first compound 3.16 µM) was 18.4% and the viability, T/C (second compound 0.3 µM, first compound 10 µM) was 2.97%.
